Read-outs that look alike come from different tables or passages of the source.
Key:
[1] = target: EGFR Del19/T790M/C797S (Homo sapiens, UniProt P00533, C797S/DEL746-750/T790M); assay: Biochemical EGFR kinase inhibition assay (Lance Ultra TR-FRET), triple mutant del19/T790M/C797S
In short: (§1)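 In this biochemical assay, phosphorylation after a one-hour room-temperature reaction was detected with europium-labelled anti-phosphopeptide antibody at 2 nM final concentration.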

[2] = target: EGFR L858R/T790M/C797S (Homo sapiens, UniProt P00533, C797S/L858R/T790M); assay: Biochemical EGFR kinase inhibition assay (Lance Ultra TR-FRET), triple mutant L858R/T790M/C797S
In short: as §1

[3] = target: EGFR Del19/C797S (Homo sapiens, UniProt P00533, C797S/DEL746-750); assay: Biochemical EGFR kinase inhibition assay (Lance Ultra TR-FRET), double mutant del19/C797S
In short: as §1

[4] = target: EGFR L858R/C797S (Homo sapiens, UniProt P00533, C797S/L858R); assay: Biochemical EGFR kinase inhibition assay (Lance Ultra TR-FRET), double mutant L858R/C797S
In short: as §1

[5] = target: EGFR wildtype (WT) (Homo sapiens, UniProt P00533); assay: Biochemical EGFR kinase inhibition assay (Lance Ultra TR-FRET), wildtype
In short: as §1

[6] = IC50 Del19/T790M/C797S (nM), 100 μM ATP
[7] = IC50 L858R/T790M/C797S (nM), 100 μM ATP
[8] = IC50 Del19/C797S (nM), 100 μM ATP
[9] = IC50 L858R/C797S (nM), 100 μM ATP
[10] = Km ATP, read-out: IC50 Del19/T790M/C797S (nM) Km ATP
[11] = Km ATP, read-out: IC50 L858R/T790M/C797S (nM) Km ATP
[12] = Km ATP, read-out: IC50 Del19/C797S (nM) Km ATP
[13] = Km ATP, read-out: IC50 L858R/C797S (nM) Km ATP
[14] = Km ATP, read-out: IC50 WT (nM) Km ATP

Chain of EGFR Del19/T790M/C797S (P00533 with tags, fused parts or gaps DEL746-750/T790M/C797S): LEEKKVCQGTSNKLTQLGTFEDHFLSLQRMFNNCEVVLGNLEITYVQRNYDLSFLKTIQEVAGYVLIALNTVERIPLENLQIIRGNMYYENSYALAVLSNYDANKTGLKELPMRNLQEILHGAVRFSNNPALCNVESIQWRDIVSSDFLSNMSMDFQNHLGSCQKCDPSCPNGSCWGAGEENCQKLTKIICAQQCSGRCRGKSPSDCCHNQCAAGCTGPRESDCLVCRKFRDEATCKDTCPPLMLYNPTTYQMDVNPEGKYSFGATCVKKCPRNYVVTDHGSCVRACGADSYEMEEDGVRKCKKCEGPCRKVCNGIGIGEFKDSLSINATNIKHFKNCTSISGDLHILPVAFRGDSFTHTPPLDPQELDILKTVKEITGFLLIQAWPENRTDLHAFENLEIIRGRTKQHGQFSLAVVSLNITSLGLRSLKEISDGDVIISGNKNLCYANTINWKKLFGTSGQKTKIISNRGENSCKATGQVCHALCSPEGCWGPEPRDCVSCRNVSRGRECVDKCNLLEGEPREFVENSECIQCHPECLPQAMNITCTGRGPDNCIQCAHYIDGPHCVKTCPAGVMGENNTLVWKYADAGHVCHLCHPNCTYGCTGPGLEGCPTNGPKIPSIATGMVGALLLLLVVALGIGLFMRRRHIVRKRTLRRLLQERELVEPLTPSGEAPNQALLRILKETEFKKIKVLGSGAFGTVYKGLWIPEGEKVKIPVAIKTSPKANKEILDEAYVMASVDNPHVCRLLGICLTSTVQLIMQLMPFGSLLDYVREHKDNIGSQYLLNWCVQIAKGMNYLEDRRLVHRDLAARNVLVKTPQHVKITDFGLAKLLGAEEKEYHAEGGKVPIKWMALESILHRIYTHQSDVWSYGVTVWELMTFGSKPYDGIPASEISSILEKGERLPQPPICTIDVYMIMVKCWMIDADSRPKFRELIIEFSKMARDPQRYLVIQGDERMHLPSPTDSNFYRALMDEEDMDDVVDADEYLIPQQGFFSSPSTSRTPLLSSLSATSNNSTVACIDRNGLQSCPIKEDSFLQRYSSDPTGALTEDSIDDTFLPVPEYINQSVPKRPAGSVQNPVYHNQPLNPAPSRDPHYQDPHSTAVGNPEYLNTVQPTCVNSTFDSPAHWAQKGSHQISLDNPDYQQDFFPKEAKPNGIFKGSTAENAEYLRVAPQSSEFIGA
Chain of EGFR L858R/T790M/C797S (P00533 25-1210 T790M/C797S/L858R): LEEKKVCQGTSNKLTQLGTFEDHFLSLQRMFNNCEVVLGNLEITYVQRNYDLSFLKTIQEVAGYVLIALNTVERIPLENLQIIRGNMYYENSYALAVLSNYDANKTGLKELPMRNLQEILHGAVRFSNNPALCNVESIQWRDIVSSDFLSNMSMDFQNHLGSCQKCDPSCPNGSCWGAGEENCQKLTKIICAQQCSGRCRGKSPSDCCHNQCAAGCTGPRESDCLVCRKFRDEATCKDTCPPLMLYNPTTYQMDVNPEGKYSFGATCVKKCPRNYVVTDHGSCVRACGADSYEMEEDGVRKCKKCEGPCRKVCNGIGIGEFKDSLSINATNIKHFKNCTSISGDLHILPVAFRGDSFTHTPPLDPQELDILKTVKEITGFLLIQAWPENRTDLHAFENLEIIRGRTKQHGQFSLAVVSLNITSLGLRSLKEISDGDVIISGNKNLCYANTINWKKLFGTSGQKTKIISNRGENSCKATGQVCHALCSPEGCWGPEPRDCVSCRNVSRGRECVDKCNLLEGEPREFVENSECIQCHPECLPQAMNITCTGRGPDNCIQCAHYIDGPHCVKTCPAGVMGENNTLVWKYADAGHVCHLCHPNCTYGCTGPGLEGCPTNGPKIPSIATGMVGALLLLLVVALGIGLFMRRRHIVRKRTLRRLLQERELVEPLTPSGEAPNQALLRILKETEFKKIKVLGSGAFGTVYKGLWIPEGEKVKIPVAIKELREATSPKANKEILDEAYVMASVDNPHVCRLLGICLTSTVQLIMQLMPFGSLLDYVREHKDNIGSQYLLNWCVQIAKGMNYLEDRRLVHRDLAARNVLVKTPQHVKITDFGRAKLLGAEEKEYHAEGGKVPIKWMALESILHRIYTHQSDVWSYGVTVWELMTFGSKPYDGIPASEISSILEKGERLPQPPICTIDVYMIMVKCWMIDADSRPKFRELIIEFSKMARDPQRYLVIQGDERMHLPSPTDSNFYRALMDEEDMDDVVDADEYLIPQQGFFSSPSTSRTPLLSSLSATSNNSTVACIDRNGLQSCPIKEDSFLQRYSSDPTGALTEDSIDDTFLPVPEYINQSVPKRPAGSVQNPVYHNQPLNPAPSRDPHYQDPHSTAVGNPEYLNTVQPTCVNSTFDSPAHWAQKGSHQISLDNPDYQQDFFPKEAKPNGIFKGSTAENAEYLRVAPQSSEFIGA
Chain of EGFR wildtype (WT) (P00533 25-1210): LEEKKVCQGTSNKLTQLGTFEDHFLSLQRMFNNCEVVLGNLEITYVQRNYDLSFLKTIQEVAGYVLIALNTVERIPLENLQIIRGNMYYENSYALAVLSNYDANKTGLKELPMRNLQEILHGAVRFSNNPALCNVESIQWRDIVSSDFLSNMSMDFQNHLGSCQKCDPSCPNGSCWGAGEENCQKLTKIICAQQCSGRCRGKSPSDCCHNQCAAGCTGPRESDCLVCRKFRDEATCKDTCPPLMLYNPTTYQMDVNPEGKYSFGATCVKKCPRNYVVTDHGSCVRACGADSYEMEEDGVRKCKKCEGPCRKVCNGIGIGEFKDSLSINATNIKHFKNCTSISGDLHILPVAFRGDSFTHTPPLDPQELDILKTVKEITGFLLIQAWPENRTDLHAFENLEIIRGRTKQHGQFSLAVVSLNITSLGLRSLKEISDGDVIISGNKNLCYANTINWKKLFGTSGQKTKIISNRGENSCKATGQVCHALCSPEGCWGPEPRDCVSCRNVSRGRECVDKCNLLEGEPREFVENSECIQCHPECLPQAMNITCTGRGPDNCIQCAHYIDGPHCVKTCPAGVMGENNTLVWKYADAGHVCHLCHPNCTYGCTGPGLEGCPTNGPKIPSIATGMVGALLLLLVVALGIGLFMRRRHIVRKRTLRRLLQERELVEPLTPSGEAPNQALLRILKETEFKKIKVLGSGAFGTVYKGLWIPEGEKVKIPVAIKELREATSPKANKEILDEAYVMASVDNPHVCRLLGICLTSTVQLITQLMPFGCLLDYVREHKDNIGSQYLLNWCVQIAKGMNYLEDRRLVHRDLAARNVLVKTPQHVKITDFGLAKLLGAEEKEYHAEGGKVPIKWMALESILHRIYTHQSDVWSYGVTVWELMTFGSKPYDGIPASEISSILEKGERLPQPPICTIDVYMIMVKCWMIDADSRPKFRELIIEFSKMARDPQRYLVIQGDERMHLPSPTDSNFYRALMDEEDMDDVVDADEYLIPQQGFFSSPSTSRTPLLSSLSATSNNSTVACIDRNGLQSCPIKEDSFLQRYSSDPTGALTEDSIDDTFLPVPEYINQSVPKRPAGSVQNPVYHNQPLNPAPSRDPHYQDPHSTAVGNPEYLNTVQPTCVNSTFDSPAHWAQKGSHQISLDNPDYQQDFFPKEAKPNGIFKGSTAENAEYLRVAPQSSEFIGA
Chain of EGFR Del19/C797S (P00533 with tags, fused parts or gaps DEL746-750/C797S): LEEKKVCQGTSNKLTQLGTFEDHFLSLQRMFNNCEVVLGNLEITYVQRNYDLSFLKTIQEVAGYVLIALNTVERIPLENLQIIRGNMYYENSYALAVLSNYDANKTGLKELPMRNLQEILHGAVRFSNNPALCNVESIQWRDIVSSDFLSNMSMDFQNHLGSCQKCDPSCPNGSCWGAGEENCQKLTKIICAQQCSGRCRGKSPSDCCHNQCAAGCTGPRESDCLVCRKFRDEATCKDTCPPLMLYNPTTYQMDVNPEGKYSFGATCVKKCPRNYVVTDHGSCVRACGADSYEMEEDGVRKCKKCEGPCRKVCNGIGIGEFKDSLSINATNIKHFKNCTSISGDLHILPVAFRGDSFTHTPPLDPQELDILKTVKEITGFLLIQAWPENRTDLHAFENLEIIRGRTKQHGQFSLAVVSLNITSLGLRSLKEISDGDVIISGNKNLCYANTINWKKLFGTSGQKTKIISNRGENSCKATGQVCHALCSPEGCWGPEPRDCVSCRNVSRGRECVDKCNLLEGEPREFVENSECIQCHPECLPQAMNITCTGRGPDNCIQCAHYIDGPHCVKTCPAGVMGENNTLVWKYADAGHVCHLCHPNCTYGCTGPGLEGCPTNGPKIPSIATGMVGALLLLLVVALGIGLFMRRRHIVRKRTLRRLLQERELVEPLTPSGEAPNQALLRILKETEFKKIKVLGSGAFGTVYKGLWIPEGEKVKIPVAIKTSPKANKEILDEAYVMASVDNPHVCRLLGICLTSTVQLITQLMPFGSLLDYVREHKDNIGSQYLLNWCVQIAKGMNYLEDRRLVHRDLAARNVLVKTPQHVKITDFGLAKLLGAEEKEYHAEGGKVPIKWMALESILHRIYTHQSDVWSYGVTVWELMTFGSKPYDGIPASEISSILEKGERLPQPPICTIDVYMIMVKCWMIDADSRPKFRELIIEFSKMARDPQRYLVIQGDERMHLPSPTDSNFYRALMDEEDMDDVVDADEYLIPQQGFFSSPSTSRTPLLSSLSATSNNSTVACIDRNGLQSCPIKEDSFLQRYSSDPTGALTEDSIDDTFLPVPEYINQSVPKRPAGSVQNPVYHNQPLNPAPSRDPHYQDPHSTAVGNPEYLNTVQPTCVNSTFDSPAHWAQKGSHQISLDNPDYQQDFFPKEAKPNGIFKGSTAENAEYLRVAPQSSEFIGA

Row | Structure (SMILES) | IC50 [1, 6] | IC50 [2, 7] | IC50 [3, 8] | IC50 [4, 9] | IC50 ([5]; IC50 WT (nM), 100 μM ATP) | IC50 [1, 10] | IC50 [2, 11] | IC50 [3, 12] | IC50 [4, 13] | IC50 [5, 14]
1 | Cn1cc(C#Cc2cnc(Nc3ccnc(-c4cnn(S(=O)(=O)C5CC5)c4)n3)cc2N2CCC(OC(F)(F)F)CC2)cn1 [Example 67, 2-(1-(Cyclopropylsulfonyl)-1H-pyrazol-4-yl)-N-(5-((1-methyl-1H-pyrazol-4-yl)ethynyl)-4-(4-(trifluoromethoxy)piperidin-1-yl)pyridin-2-yl)pyrimidin-4-amine] | 13.3 nM | 27.7 nM | 181 nM | 209 nM | > 10000 nM | – | – | – | – | –
2 | Cn1cc(C#Cc2cnc(Nc3ccnc(-c4cnn(S(=O)(=O)C5CC5)c4)n3)cc2N2CCC(O)C(F)(F)C2)cn1 (stereo not shown) [Example 68, 1-(2-((2-(1-(Cyclopropylsulfonyl)-1H-pyrazol-4-yl)pyrimidin-4-yl)amino)-5-((1-methyl-1H-pyrazol-4-yl)ethynyl)pyridin-4-yl)-3,3-difluoropiperidin-4-ol] | 1.3 nM | 8.9 nM | 31 nM | 130 nM | > 10000 nM | – | – | – | – | –
3 | Cn1cc(C#Cc2cnc(Nc3ccnc(-c4cnn(S(=O)(=O)C5CC5)c4)n3)cc2N2CCC(O)C(C)(C)C2)cn1 (stereo not shown) [Example 69, 1-(2-((2-(1-(Cyclopropylsulfonyl)-1H-pyrazol-4-yl)pyrimidin-4-yl)amino)-5-((1-methyl-1H-pyrazol-4-yl)ethynyl)pyridin-4-yl)-3,3-dimethylpiperidin-4-ol] | 1.7 nM | 13.2 nM | 43.8 nM | 179 nM | > 10000 nM | – | – | – | – | –
4 | Cn1cc(C#Cc2cnc(Nc3ccnc(-c4cnn(S(=O)(=O)C5CC5)c4)n3)cc2N2CCCC(F)C2)cn1 (stereo not shown) [Example 70, 2-(1-(Cyclopropylsulfonyl)-1H-pyrazol-4-yl)-N-(4-(3-fluoropiperidin-1-yl)-5-((1-methyl-1H-pyrazol-4-yl)ethynyl)pyridin-2-yl)pyrimidin-4-amine] | 1.6 nM | 10.4 nM | 24.7 nM | 172 nM | > 10000 nM | – | – | – | – | –
5 | Cn1cc(C#Cc2cnc(Nc3ccnc(-c4cnn(S(=O)(=O)C5CC5)c4)n3)cc2N2CCCC(C(F)(F)F)C2)cn1 (stereo not shown) [Example 71, 2-(1-(Cyclopropylsulfonyl)-1H-pyrazol-4-yl)-N-(5-((1-methyl-1H-pyrazol-4-yl)ethynyl)-4-(3-(trifluoromethyl)piperidin-1-yl)pyridin-2-yl)pyrimidin-4-amine] | 15.7 nM | 52.6 nM | 127 nM | 751 nM | > 10000 nM | – | – | – | – | –
6 | Cn1cc(C#Cc2cnc(Nc3ccnc(-c4cnn(S(=O)(=O)C5CC5)c4)n3)cc2N2CCCC(CF)C2)cn1 (stereo not shown) [Example 72, 2-(1-(Cyclopropylsulfonyl)-1H-pyrazol-4-yl)-N-(4-(3-(fluoromethyl)piperidin-1-yl)-5-((1-methyl-1H-pyrazol-4-yl)ethynyl)pyridin-2-yl)pyrimidin-4-amine] | 2.8 nM | 16.9 nM | 50.3 nM | 170 nM | > 10000 nM | – | – | – | – | –
7 | Cn1cc(C#Cc2cnc(Nc3ccnc(-c4cnn(S(=O)(=O)C5CC5)c4)n3)cc2N2CCC(F)(CO)CC2)cn1 [Example 73, (1-(2-((2-(1-(Cyclopropylsulfonyl)-1H-pyrazol-4-yl)pyrimidin-4-yl)amino)-5-((1-methyl-1H-pyrazol-4-yl)ethynyl)pyridin-4-yl)-4-fluoropiperidin-4-yl)methanol] | 0.4 nM | 1.2 nM | 2.8 nM | 6.6 nM | 7550 nM | – | – | – | – | –
8 | Cn1cc(C#Cc2cnc(Nc3ccnc(-c4cnn(S(=O)(=O)C5CC5)c4)n3)cc2NC2CCCC(F)C2)cn1 (stereo not shown) [Example 74, N^2-(2-(1-(Cyclopropylsulfonyl)-1H-pyrazol-4-yl)pyrimidin-4-yl)-N^4-(3-fluorocyclohexyl)-5-((1-methyl-1H-pyrazol-4-yl)ethynyl)pyridine-2,4-diamine] | 4.7 nM | 13.6 nM | 123 nM | 181 nM | > 10000 nM | – | – | – | – | –
9 | Cn1cc(C#Cc2cnc(Nc3ccnc(-c4cnn(S(=O)(=O)C5CC5)c4)n3)cc2N[C@H]2CCC[C@@H](O)C2)cn1 [Example 75, (1R,3S)-3-((2-((2-(1-(Cyclopropylsulfonyl)-1H-pyrazol-4-yl)pyrimidin-4-yl)amino)-5-((1-methyl-1H-pyrazol-4-yl)ethynyl)pyridin-4-yl)amino)cyclohexan-1-ol] | 1.6 nM | 1.8 nM | 5.7 nM | 104 nM | > 10000 nM | 1.8 nM | 0.8 nM | 3.8 nM | 2.6 nM | 45.6 nM
10 | Cn1cc(C#Cc2cnc(Nc3ccnc(-c4cnn(S(=O)(=O)C5CC5)c4)n3)cc2N[C@@H]2CCC[C@@H](O)C2)cn1 [Example 76, (1R,3R)-3-((2-((2-(1-(Cyclopropylsulfonyl)-1H-pyrazol-4-yl)pyrimidin-4-yl)amino)-5-((1-methyl-1H-pyrazol-4-yl)ethynyl)pyridin-4-yl)amino)cyclohexan-1-ol] | 4 nM | 8.8 nM | 80.7 nM | 2780 nM | > 10000 nM | 3.7 nM | 2.2 nM | 51.9 nM | 22.1 nM | 667 nM
11 | Cn1cc(C#Cc2cnc(Nc3ccnc(-c4cnn(S(=O)(=O)C5CC5)c4)n3)cc2N2CCCC(O)CC2)cn1 (stereo not shown) [Example 77, 1-(2-((2-(1-(Cyclopropylsulfonyl)-1H-pyrazol-4-yl)pyrimidin-4-yl)amino)-5-((1-methyl-1H-pyrazol-4-yl)ethynyl)pyridin-4-yl)azepan-4-ol] | 0.6 nM | 3.6 nM | 6.3 nM | 357 nM | > 10000 nM | 0.9 nM | 0.5 nM | 5 nM | 14.1 nM | 97 nM
12 | Cn1cc(C#Cc2cnc(Nc3ccnc(-c4cnn(S(=O)(=O)C5CC5)c4)n3)cc2N2CCCC(CO)CC2)cn1 (stereo not shown) [Example 78, (1-(2-((2-(1-(Cyclopropylsulfonyl)-1H-pyrazol-4-yl)pyrimidin-4-yl)amino)-5-((1-methyl-1H-pyrazol-4-yl)ethynyl)pyridin-4-yl)azepan-4-yl)methanol] | 1.3 nM | 5.9 nM | 12.4 nM | 563 nM | > 10000 nM | 1.6 nM | 0.7 nM | 10.4 nM | 22.1 nM | 163 nM
13 | Cn1cc(C#Cc2cnc(Nc3ccnc(-c4cnn(S(=O)(=O)C5CC5)c4)n3)cc2N2CCC3(CCNC3=O)CC2)cn1 [Example 79, 8-(2-((2-(1-(Cyclopropylsulfonyl)-1H-pyrazol-4-yl)pyrimidin-4-yl)amino)-5-((1-methyl-1H-pyrazol-4-yl)ethynyl)pyridin-4-yl)-2,8-diazaspiro[4.5]decan-1-one] | 0.3 nM | 0.8 nM | 1.3 nM | 17.8 nM | 7190 nM | 0.2 nM | 0.1 nM | 1.3 nM | 1.2 nM | 6.1 nM
14 | Cn1cc(C#Cc2cnc(Nc3ccnc(-c4cnn(S(=O)(=O)C5CC5)c4)n3)cc2N[C@H]2CC[C@@H](NCCF)CC2)cn1 [Example 80, N^2-(2-(1-(Cyclopropylsulfonyl)-1H-pyrazol-4-yl)pyrimidin-4-yl)-N^4-((1s, 4s)-4-((2-fluoroethyl)amino)cyclohexyl)-5-((1-methyl-1H-pyrazol-4-yl)ethynyl)pyridine-2,4-diamine] | 0.6 nM | 1.9 nM | 16.1 nM | 137 nM | > 10000 nM | 0.5 nM | 0.5 nM | 12.3 nM | 16.4 nM | 80.1 nM
15 | Cn1cc(C#Cc2cnc(Nc3ccnc(-c4cnn(S(=O)(=O)C5CC5)c4)n3)cc2N[C@H]2CC[C@@](C)(O)CC2)cn1 [Example 81, (1s,4s)-4-((2-((2-(1-(Cyclopropylsulfonyl)-1H-pyrazol-4-yl)pyrimidin-4-yl)amino)-5-((1-methyl-1H-pyrazol-4-yl)ethynyl)pyridin-4-yl)amino)-1-methylcyclohexan-1-ol] | 0.3 nM | 0.4 nM | 5.8 nM | 79.1 nM | > 10000 nM | 0.3 nM | 0.2 nM | 7.7 nM | 5.3 nM | 61.6 nM
16 | O=S(=O)(C1CC1)n1cc(-c2nccc(Nc3cc(N4CCC(O)CC4)c(C#Cc4cnn(C5CC5(F)F)c4)cn3)n2)cn1 (stereo not shown) [Example 82, 1-(2-((2-(1-(Cyclopropylsulfonyl)-1H-pyrazol-4-yl)pyrimidin-4-yl)amino)-5-((1-(2,2-difluorocyclopropyl)-1H-pyrazol-4-yl)ethynyl)pyridin-4-yl)piperidin-4-ol] | 0.6 nM | 1.8 nM | 3.5 nM | 22.8 nM | > 10000 nM | – | – | – | – | –

From patent US11981658B2, “Substituted aminopyridine compounds as EGFR inhibitors” (YUHAN CORPORATION, priority 2021, dated 2024)
